Laboratory results: patent US5674864A, “N-substituted derivatives of α-mercapto alkylamines, their preparation process and the intermediates obtained, their use as medicaments and the compositions containing them” (Roussel Uclaf, priority 1990, dated 1997)

Legend:
enkephalinase = target: T1, enkephalinase (Rattus norvegicus, UniProt P07861); assay: Determination of the enkephalinase inhibiting effect; format: biochemical; details: renal membrane fraction of a rat; substrate Succinyl-Ala-Ala-Phe-amino-methylcoumarine; 37° C., 30 minutes, pH 7.5
T1 construct: from tissue; host or cells: rat kidney, renal membrane fraction solubilised with octyl beta-D-glucopyranoside (100,000 g supernatant)
T1 sequence (P07861 1-750): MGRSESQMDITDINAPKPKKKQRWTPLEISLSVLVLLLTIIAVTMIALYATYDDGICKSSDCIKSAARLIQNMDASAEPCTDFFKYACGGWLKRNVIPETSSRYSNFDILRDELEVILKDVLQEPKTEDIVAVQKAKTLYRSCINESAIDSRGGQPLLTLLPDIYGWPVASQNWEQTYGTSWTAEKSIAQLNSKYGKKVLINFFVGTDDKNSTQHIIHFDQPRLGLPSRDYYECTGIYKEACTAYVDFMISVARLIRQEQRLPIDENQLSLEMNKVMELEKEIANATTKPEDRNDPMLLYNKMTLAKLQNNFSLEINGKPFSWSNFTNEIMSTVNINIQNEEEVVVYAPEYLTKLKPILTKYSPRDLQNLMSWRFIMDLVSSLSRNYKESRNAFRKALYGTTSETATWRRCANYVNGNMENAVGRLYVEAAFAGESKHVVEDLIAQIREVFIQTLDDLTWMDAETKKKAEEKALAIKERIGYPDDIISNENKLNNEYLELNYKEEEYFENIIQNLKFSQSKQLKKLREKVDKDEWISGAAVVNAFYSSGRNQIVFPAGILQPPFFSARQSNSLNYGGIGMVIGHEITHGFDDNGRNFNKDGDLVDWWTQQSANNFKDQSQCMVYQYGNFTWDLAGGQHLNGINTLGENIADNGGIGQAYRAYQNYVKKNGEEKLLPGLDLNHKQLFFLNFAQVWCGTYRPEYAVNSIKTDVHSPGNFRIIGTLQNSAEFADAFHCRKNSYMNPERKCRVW
Protocol: 1) Determination of the enkephalinase inhibiting effect
The enkephalinase activity was determined from a renal membrane fraction of a rat. The kidneys were removed on ice and homogenized in a HEPES 0.05M pH 7.5 buffer containing magnesium chloride (50 times the volume). After a first centrifugation at 1,500 g, the specific fraction was obtained from a centrifugation at 15,000 g for 20 minutes. The deposit was then washed and suspended in a HEPES buffer and kept at -20° C. An aliquot of this membrane preparation was put in the presence of octyl beta-D-glucopyranoside (50 mM as final […]) for 15 minutes at 4° C. After centrifugation at 100,000 g for one hour, the supernatant was removed and frozen in aliqots at -20° C. The concentration of proteins was determined by the method using Comassie's blue.
An aliquot of the protein fraction thus prepared was preincubated at 25° C. for 10 minutes in a HEPES 0.05M pH 7.5 buffer or in the presence of the product to be studied. The substrate added was a non-natural enkephalin of formula Succinyl-Ala-Ala-Phe-amino-methylcoumarine (reference 1) (40mM as final concentration). The incubation continued at 37° C. for 30 minutes and then the reaction was stopped by heating to 95° C. for 5 minutes and each incubate was centrifuged. A solution of amino peptidase M (4 mM as final concentration) and thiorphan (reference 2) (10^-5 M) was added to the supernatant and the mixture was taken to 37° C. for one hour. The reaction was stopped as previously described and the fluorescence of 7-amino-methyl-coumarine produced was determined. The effect of the products to be tested was determined by calculating the IC50, the concentration which inhibited the hydrolysis of the substrate by 50%.
Reference 1: R. A. Munford, P. A. Pierzchala, A-W Strauss and M. Zimmerman, Purification of a membrane-bound metalloendo peptidase from porcine kidney that degrades peptides hormones. Proc. Natl. Acad. Sci 78, No. 11, p. 6623.
Reference 2: Inhibitor of enkephalinase described in Example 20 of French Patent No. 2,480,747.

[1] = Stretchings caused by acetic acid in a mouse (analgesic activity); format: in vivo; details: 0.25 h, PO, half-an-hour before intraperitoneal acetic acid, 15 minutes observation, read-out: DA50 (dose which allows a decrease of 50% in the number of stretchings)
Protocol: 2) Study of analgesic activity in a mouse Stretchings caused by acetic acid in a mouse
The test used was based on the fact indicated by KOSTER, et al [Fed. Proc. (1959), Vol. 1B, p. 412] according to which the intraperitoneal injection of acetic acid causes, in a mouse, repeated stretching and twisting movements which can persist for more than 6 hours. Analgesics prevent or lessen this syndrome which can be considered as the outward display of a widespread abdominal pain. A 1% solution of acetic acid in water was used and was administered at a volume of 10 ml/kg. The studied product was administered by buccal route half-an-hour before the acetic acid injection, the mice having gone without food for at least 6 hours. The stretchings were observed and counted for Each mouse for an observation period of 15 minutes. The results were expressed by means of the DA50, that is the dose which allows a decrease of 50% in the number of stretchings to be obtained relative to the control animals.

Hot-plate test = format: in vivo; details: Mus musculus, 0.5 h, po, male mice, plate at 56° C., 30 minutes after oral administration; for ED50: read-out: DA50 (dose which increased the reaction time by 50%); for ED100: read-out: DA100 (dose which increased the reaction time by 100%)
Protocol: Male mice weighing 22 g were placed individually on a copper plate maintained at 56° C. by a thermostatically-controlled water bath. […] The reaction time to the heat stimulus was noted and only animals reacting within 4.5 and 6.5 seconds were retained. The reaction time to the pain was measured 30 minutes after oral administration. The variations in the reaction time were expressed as a percentage of the initial time. The DA50 and DA100, or doses which increased the reaction time by 50 and 100%, taking into account variations in the control group, were determined by a graph or by the method of the least squares.

CN(O)C(=O)NC(CS)Cc1ccccc1 (single isomer, unassigned; (+)) [Example 6, (+) N-hydroxy-N'-[2-mercapto-1-(phenylmethyl)-ethyl]-N-methyl urea]
IC50 (enkephalinase): 3.5 nM

O=C(Nc1ccccc1)NC(CS)Cc1ccccc1 (single isomer, unassigned; (+)) [Example 16]
IC50 (enkephalinase): 70 nM
ED50 [1]: 50 mg/kg

CCCN(CCC)C(=O)NC(CS)Cc1ccccc1 (single isomer, unassigned; (+)) [Example 18, (+) N,N-dipropyl-N'-[2-mercapto-1-(phenylmethyl)-ethyl]urea]
IC50 (enkephalinase): 180 nM
ED50 [1]: 33 mg/kg
ED50 (Hot-plate test): 33 mg/kg
ED100 (Hot-plate test): 100 mg/kg

CONC(=O)NC(CSC(C)=O)Cc1ccccc1 (stereo not drawn) [Example 1, S-[2-(3-methoxy-ureido)-3-phenyl-propyl]-ethanethioate]
IC50 (enkephalinase): 87 nM
ED50 [1]: 71 mg/kg

CC(=O)SCC(Cc1ccccc1)NC(=O)N(C)O (stereo not drawn) [Example 5]
ED50 (Hot-plate test): 100 mg/kg
ED100 (Hot-plate test): 200 mg/kg

COC(=O)CNC(=O)NC(CSC(C)=O)Cc1ccccc1 (stereo not drawn) [Example 11, Methyl N-[[[2-(acetylthio)-1-(phenylmethyl)-ethyl]-amino]-carbonyl]-glycinate]
ED50 [1]: 85 mg/kg
ED50 (Hot-plate test): 100 mg/kg

CC(=O)SCC(Cc1ccccc1)NC(=O)Nc1ccccc1 (stereo not drawn) [Example 15, S-[2-(3-phenyl-ureido)-3-phenylpropyl]ethanethioate]
IC50 (enkephalinase): 100 nM

CCCN(CCC)C(=O)NC(CSC(C)=O)Cc1ccccc1 (stereo not drawn) [Example 17, S-[2-[3-bis(propyl)-ureido]-3-phenyl-propyl]-ethanethioate]
IC50 (enkephalinase): 48 nM
